This note sets out measurements from the NIST ThermoML archive (doi:10.1016/j.jct.2007.03.009).

For the data set the following is noted: for mass density: 298 K, 101.33 kPa, Liquid, masses and of the volumes of pellets.; for vapor or sublimation pressure / Normal melting temperature: Crystal; for vapor or sublimation pressure: Knudsen effusion; for Normal melting temperature: DTA.

SMILES strings stand for the structures. “And” between values parts separate entries of the source, which are not always exact repeats. Equal values may be shown once. Numbers after ± are expanded uncertainties.

By mass density is commonly meant mass per unit of volume. One may read the vapor or sublimation pressure as the pressure of vapour in equilibrium with the condensed phase.

For `O=C1c2ccccc2C(=O)N1CCl` [N-(chloromethyl)phthalimide], the mass density is listed as 1081 ± 22 kg/m3 and the Normal melting temperature was determined as 133.5 ± 0.5 °C. For the same compound, the “vapor or sublimation pressure” value (323.27 K) is 0.000111 ± 2e-05 kPa and 0.000106 ± 2e-05 kPa. Besides, the “vapor or sublimation pressure” value (325.24 K) is 0.000138 ± 2.1e-05 kPa and 0.000137 ± 2.1e-05 kPa and 0.000132 ± 2.1e-05 kPa. Further, the “vapor or sublimation pressure” value (327.12 K) is 0.000171 ± 2.1e-05 kPa and 0.000168 ± 2.1e-05 kPa and 0.000169 ± 2.1e-05 kPa. For the same compound, the “vapor or sublimation pressure” value (329.26 K) was 0.000218 ± 2.1e-05 kPa and 0.000207 ± 2.1e-05 kPa and 0.00022 ± 2.1e-05 kPa. The “vapor or sublimation pressure” value (331.23 K) is 0.000282 ± 2.2e-05 kPa and 0.00027 ± 2.2e-05 kPa and 0.000262 ± 2.2e-05 kPa. Where the note is “333.11 K”, the “vapor or sublimation pressure” value was 0.00033 ± 2.3e-05 kPa and 0.000328 ± 2.3e-05 kPa and 0.000329 ± 2.3e-05 kPa. For the same compound, where the note is “335.12 K”, the “vapor or sublimation pressure” value was 0.00042 ± 2.5e-05 kPa and 0.000413 ± 2.5e-05 kPa and 0.000402 ± 2.5e-05 kPa. Further, the “vapor or sublimation pressure” value (337.26 K) was 0.000534 ± 2.8e-05 kPa and 0.000519 ± 2.7e-05 kPa and 0.000507 ± 2.7e-05 kPa. The “vapor or sublimation pressure” value (339.12 K) was 0.000648 ± 3e-05 kPa and 0.000644 ± 3e-05 kPa and 0.000618 ± 3e-05 kPa. Also, under “341.22 K”, the “vapor or sublimation pressure” value was 0.000835 ± 3.6e-05 kPa and 0.000801 ± 3.5e-05 kPa and 0.00077 ± 3.4e-05 kPa. Besides, the “vapor or sublimation pressure” value (343.25 K) is 0.001007 ± 4.1e-05 kPa and 0.000989 ± 4e-05 kPa and 0.000946 ± 3.9e-05 kPa.
Consider `O=C1c2ccccc2C(=O)N1CCCBr` [N-(3-bromopropyl)phthalimide], for which the mass density turned out to be 1051 ± 21 kg/m3 and the Normal melting temperature was 72.8 ± 0.5 °C.
The matching figures for `O=C1c2ccccc2C(=O)N1CCBr` [N-(2-bromoethyl)phthalimide]: 1323 ± 26 kg/m3 and 81.5 ± 0.5 °C.
Turning to `O=C1c2ccccc2C(=O)N1CCCl` [N-(2-chloroethyl)phthalimide], the mass density turned out to be 1218 ± 24 kg/m3 and the Normal melting temperature worked out at 82.8 ± 0.5 °C.
